Assay results published in article PMC5068967, “Nucleophile sensitivity of Drosophila TRPA1 underlies light-induced feeding deterrence” (eLife, 2016).

Tests used:
Drosophila TRPA1(B) = target: T1, Drosophila TRPA1(B) (Drosophila melanogaster, UniProt Q7Z020); assay: Two-electrode voltage clamp of Xenopus oocytes expressing Drosophila TRPA1(B); type: cell-based
T1 construct: expressed in transfected cells; host or cells: Xenopus laevis oocytes injected with TrpA1 cRNA
T1 sequence (Q7Z020 1-1197): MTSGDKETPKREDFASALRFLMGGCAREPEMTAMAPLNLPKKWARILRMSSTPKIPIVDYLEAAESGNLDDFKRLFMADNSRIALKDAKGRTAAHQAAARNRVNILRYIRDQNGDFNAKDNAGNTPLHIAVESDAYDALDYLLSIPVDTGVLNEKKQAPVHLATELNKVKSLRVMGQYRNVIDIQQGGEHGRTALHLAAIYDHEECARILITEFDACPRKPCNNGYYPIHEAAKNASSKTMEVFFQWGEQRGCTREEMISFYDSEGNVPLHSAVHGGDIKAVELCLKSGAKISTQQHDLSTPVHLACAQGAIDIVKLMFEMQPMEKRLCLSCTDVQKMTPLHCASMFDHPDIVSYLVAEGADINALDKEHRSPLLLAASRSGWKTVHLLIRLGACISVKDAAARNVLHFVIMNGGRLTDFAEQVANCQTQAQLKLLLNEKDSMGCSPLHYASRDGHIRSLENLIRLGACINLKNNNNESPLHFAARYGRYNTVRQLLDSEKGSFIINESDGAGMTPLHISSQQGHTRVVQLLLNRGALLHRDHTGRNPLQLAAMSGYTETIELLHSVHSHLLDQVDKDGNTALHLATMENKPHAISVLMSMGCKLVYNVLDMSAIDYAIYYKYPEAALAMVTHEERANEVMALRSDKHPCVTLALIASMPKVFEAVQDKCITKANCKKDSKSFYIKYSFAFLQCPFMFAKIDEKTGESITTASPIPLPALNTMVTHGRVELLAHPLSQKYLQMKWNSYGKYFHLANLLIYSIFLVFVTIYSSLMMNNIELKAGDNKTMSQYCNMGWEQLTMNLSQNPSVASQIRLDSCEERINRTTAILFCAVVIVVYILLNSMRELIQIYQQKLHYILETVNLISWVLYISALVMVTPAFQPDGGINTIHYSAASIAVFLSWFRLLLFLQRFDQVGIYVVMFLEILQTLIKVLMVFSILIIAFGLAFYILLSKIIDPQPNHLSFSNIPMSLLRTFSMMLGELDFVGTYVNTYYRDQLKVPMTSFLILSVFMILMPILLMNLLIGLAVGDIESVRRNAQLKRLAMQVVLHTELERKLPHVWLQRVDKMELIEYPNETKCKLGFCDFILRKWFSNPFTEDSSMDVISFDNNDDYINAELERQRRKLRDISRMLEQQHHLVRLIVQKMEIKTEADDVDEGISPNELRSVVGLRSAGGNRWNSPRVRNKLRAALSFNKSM
Protocol: (§1) TRPA1-dependent currents in Xenopus laevis oocytes induced by application of chemicals and light illumination were recorded by the two-electrode voltage clamping technique (TEVC), as described previously ([Kang et al., 2010]; [Kang et al., 2012]). Briefly, ovaries were surgically prepared and subjected to digestion with 1.5 mg/ml collagenase for 1.5 hr. Subsequently, the follicular layer of the oocytes was manually removed. One day after microinjection of 50 nl of TrpA1 cRNA, oocytes were electrophysiologically examined while perfused with the recording solution (96 mM NaCl, 1 mM KCl, 1 mM MgCl2, 5 mM HEPES, pH 7.6). For UV illumination, the optical fiber terminal was mounted above the cell at a minimal distance to achieve the highest possible intensity (Figure 1—figure supplement 1c). […] For UV experiments, the initial voltage was −60 mV, and it was then changed in periods of 300 ms from −60 to +60 mV per second. […] The current was amplified with a GeneClamp 500B amplifier (Molecular Devices, CA, USA) and registered by a digitizer (Digidata 1440 A, Molecular Devices, CA, USA). Data from dose-dependence experiments were normalized with respect to 0.1 mM NMM currents recorded from the same cells, and fitted to the Hill equation using Sigmaplot12.

agTRPA1(A) = agTRPA1(A) (Anopheles gambiae, UniProt B3G3I7); assay: Two-electrode voltage clamp of Xenopus oocytes expressing agTRPA1(A); type: cell-based; conditions: for isoform preference of activation: −60 mV, agTRPA1(A) versus agTRPA1(B)
Chain of agTRPA1(A) (B3G3I7 entry or part of it): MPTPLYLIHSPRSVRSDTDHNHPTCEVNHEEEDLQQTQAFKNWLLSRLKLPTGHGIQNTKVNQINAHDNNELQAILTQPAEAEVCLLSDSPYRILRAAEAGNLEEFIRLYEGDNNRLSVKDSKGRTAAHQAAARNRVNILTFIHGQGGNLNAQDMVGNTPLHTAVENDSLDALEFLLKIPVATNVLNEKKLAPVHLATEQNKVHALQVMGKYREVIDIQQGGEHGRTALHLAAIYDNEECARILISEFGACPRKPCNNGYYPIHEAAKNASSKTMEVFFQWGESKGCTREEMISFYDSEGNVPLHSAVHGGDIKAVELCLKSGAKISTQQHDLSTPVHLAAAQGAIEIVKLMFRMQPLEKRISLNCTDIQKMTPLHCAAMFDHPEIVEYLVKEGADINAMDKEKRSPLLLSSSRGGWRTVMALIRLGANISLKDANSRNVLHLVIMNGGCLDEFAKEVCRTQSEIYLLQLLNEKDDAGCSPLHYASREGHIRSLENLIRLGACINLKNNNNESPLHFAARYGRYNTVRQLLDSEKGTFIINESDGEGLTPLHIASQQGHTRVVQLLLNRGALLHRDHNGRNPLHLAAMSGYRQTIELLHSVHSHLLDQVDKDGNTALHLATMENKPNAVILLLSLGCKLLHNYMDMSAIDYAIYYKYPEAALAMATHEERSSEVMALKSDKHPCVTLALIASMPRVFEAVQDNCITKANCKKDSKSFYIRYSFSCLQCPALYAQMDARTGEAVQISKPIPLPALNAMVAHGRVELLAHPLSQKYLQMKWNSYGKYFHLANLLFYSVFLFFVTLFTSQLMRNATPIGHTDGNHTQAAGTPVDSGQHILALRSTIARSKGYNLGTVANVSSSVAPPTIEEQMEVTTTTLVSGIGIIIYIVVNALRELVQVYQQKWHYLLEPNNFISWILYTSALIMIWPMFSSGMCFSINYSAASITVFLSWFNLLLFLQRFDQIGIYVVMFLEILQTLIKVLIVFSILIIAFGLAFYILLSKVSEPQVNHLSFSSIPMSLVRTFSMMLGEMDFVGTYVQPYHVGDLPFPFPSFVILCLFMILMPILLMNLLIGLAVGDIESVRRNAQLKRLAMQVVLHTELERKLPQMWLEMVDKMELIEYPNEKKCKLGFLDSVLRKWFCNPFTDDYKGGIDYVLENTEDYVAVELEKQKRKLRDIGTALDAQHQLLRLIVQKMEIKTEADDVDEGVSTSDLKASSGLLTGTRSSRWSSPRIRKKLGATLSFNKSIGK
Protocol: as §1

human TRPA1 (humTRPA1) = target: T2, human TRPA1 (humTRPA1) (Homo sapiens, UniProt O75762); assay: Two-electrode voltage clamp of Xenopus oocytes expressing human TRPA1; type: cell-based
T2 construct: expressed in transfected cells; host or cells: Xenopus laevis oocytes injected with TrpA1 cRNA
T2 sequence (O75762 whole entry): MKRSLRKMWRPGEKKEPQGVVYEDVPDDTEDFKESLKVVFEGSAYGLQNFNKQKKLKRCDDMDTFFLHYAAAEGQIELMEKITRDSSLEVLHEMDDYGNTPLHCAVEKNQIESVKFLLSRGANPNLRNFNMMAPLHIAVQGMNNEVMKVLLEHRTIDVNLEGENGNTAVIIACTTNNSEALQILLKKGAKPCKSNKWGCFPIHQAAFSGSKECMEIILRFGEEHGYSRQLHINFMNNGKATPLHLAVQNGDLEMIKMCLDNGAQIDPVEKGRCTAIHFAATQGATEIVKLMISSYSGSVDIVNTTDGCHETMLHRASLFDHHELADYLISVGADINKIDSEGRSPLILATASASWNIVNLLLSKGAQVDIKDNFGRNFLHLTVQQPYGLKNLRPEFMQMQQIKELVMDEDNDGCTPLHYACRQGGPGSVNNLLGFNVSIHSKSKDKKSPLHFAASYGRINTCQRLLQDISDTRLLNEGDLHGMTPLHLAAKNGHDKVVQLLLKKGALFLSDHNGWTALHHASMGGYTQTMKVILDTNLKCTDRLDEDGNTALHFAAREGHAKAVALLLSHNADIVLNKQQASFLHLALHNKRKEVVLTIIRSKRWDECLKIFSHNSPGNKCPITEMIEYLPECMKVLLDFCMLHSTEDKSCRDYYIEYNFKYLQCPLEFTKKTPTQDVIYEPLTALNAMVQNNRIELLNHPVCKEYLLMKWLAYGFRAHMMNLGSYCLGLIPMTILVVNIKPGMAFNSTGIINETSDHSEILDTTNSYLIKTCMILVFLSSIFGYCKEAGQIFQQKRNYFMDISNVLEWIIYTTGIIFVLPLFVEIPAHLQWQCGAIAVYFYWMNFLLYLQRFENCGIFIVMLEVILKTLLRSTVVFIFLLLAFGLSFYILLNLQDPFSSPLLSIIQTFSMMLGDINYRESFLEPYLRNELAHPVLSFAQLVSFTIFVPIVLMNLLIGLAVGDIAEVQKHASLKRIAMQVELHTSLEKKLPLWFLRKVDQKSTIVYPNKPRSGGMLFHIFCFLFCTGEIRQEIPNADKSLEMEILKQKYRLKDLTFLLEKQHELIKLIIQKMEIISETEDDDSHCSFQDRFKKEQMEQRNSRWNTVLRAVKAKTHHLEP
Protocol: as §1

[1] = test system: bitter-sensing neurons in i-bristles; assay: Extracellular single sensillum recording from labellum i-bristles; type: in vivo, Drosophila melanogaster; conditions: for effect of pre-application on UV-evoked action potentials: i-a bristles, applied via the recording electrode, concentrations below those eliciting fast activation
Protocol: In vivo taste cell recordings were performed as detailed previously ([Kang et al., 2012]). Briefly, bristles were identified based on the previously described sensillum map of the labellum ([Weiss et al., 2011]; [Tanimura et al., 2009]). […] Tricholine citrate (TCC) at 30 mM was used as an electrolyte in the glass recording electrodes. Chemicals were solubilized in the electrolyte solution, and then applied to taste neurons. Spiking frequencies to chemicals were calculated for entire recordings except for H2O2 recording in L bristles, for which spiking frequencies were calcuclated from the first 10 s. […] For the first 20 s of UV response recordings, the basal activity of neurons in the bristle was monitored, after which time UV illumination was administered to the sensilla for 20 s using optical fiber-coupled UV LEDs (FCS-0295–000, Mightex, CA, and UVTOP295, Qphotonics, MI, USA for UVB at 295 nm and M365FP1, Thorlabs, USA for UVA at 365 nm) controlled by an SLA-series two-channel LED driver (SLA-0100–2, Mightex) and a T-Cube LED driver (LEDD1B, Thorlab, USA), respectively. The maximal optical fiber output of 295 nm UV was 0.063 mWusing a ball-lens type LED and that of 365 nm UV was 0.3 mW. These net power outputs at the tip of the optical fiber were measured with a photodiode sensor (S120VC, Thorlabs, NJ, USA) connected to a digital console (PM100D, Thorlabs, NJ, USA). Illumination intensity was calculated by considering the size of illuminated area derived from the numerical aperture (NA) values of the optical fibers and the distance to the samples. Due to the complex shape of fly taste bristles on the labellum and various illumination angles between the light beam and tissue, we simplified the calculation by postulating a 45° angle and oval illumination area at a distance (Figure 1—figure supplement 1d). For oocytes, circular areas were calculated (Figure 1—figure supplement 1e). Blue and green light illumination was accomplished using a GFP or RFP excitation filter (470 or 540 nm with a bandpath of 50, respectively) equipped with a typical fluorescence microscope. The UV filter for experiments with white light consisted of glass deposited with nanolayers of titanium dioxide (custom-made, Seoul Precision Optics, Seoul, Korea). Flies prepared for sensillum recording in response to light were used once to record from a single bristle, in order to test only naïve cells. The reference electrode containing hemolymph-like solution 3.1 (HL3.1) ([Feng et al., 2009]) was inserted close to the labella taste neuron cell bodies from the back of the fly thorax, which held the proboscis in an extended configuration in order to minimize electrical noise stemming from movement of the live animal. Tasteprobe (Syntech, Netherlands) was used as a preamplifier to register the action potentials from the neurons, which were digitized with Powerlab (ADI instruments, Australia). The obtained spiking frequencies were analyzed by Labchart (ADI instruments, Australia). Non-responding bristles were re-tested with other agonists that activate the same neurons as indicated in the main text (Figure 1—figure supplement 2 and Figure 3—figure supplement 1).

TRPA1(A)C105A = assay: Two-electrode voltage clamp of Xenopus oocytes expressing TRPA1(A)C105A; type: cell-based, Drosophila melanogaster
Protocol: as §1

TRPA1(A)R113A/R116A = assay: Two-electrode voltage clamp of Xenopus oocytes expressing TRPA1(A)R113A/R116A; type: cell-based, Drosophila melanogaster
Protocol: as §1

agTRPA1(B) = assay: Two-electrode voltage clamp of Xenopus oocytes expressing agTRPA1(B); type: cell-based, Anopheles gambiae; conditions: 0.1 mM APS
Protocol: as §1

Drosophila TRPA1(A) = target: T3, Drosophila TRPA1(A) (Drosophila melanogaster, UniProt Q7Z020); assay: Two-electrode voltage clamp of Xenopus oocytes expressing Drosophila TRPA1(A); type: cell-based
T3 sequence (Q7Z020 1-1197): T1 sequence (Q7Z020 1-1197)
Protocol: as §1

Drosophila (WT: wcs) = assay: Capillary feeder (Café) assay, feeding avoidance; type: in vivo, Drosophila melanogaster; design: dose or concentration left out as unconfirmed; conditions: WT flies
Protocol: To quantitatively evaluate the impact of UV irradiation and chemicals on feeding deterrence, the capillary feeder (Café) assay ([Ja et al., 2007]) was used with minor modifications. In particular, feeding avoidance upon UV illumination was determined using two sibling populations of 16 hr starved flies. […] Irradiance was measured as ~1.8, 4, and 57.1 mW/cm^2for UVA, UVB, and white light, respectively, using an excised piece of a vial covering the photodiode probe (S120VC, Thorlabs, NJ, USA) to simulate internal irradiation. The vials were made of polypropylene, which has a low rate of UV transmission ([Kruenate et al., 2004]), resulting in increased internal temperature, as described in Figure 1—figure supplement 3. To minimize thermal accumulation, the UV-illuminated vial was actively cooled by fan-driven air flow while the internal temperature of a separately illuminated vial was concurrently monitored. After each feeding session, the change in the level of the menisci of 30 mM sucrose solutions in three calibrated glass capillary tubes (#2920107, Marienfeld, Lauda-Königshofen, Germany, 15 mm/μl) was measured. Following measurement of the evaporated volume obtained from vials without flies, the distance readings were converted to volume measurements. […]

mouse TRPA1 = conditions: extracellular Ca2+ required; ref Andersson et al., 2008; cited from earlier work

O[C@@H](CS)[C@@H](O)CS (racemic) [DTT, dithiothreitol]
DTT current response (Drosophila TRPA1(B); Xenopus oocytes): little compared to that of TRPA1(A) | EC50 (agTRPA1(A)): ~3.8 µM | DTT current response (human TRPA1 (humTRPA1)): seldom showed electrophysiological responses to DTT | effect of pre-application on UV-evoked action potentials [1]: lowered the frequencies of UV-evoked action potentials | DTT responsiveness (TRPA1(A)C105A): indistinguishable from that of TRPA1(B) | DTT responsiveness (TRPA1(A)R113A/R116A): indistinguishable from that of TRPA1(B)

N.N.O=S(=O)(O)OOS(=O)(=O)O [APS, ammonium persulfate]
channel activation (agTRPA1(A); 0.1 mM APS, mixture 0.01 mM TEMED and 0.1 mM APS, from 30 min after mixing): activated agTPRA1(A) | channel activation (agTRPA1(B)): not agTRPA1(B)

S=C=NCc1ccccc1 [BITC, benzyl isothiocyanate]
effect of pre-application on UV-evoked action potentials [1]: lowered the frequencies of UV-evoked action potentials

N#CSCc1ccccc1 [BTC, benzyl thiocyanate]
isoform preference of activation (agTRPA1(A); Xenopus oocytes): preferentially activated agTRPA1(A) over agTRPA1(B) | effect of pre-application on UV-evoked action potentials [1]: lowered the frequencies of UV-evoked action potentials

OO [H2O2, hydrogen peroxide]
EC50 (Drosophila TRPA1(A)): 5 ± 0.8 µM | lowest concentration that readily activates the channel (Drosophila TRPA1(A); Xenopus oocytes, 'as low as'): 100 nM | Emax (Drosophila TRPA1(A); read-out: average maximal current amplitude relative to NMM responses): ~30% | EC50 (Drosophila TRPA1(B)): 900 ± 200 µM | EC50 (agTRPA1(A)): 1.7 ± 0.3 µM | NMM-normalized peak current amplitude relative to Drosophila TRPA1(A) (agTRPA1(A); Xenopus oocytes): ~ 5 times | H2O2 current response (human TRPA1 (humTRPA1)): remarkably reduced responses to H2O2 | feeding avoidance (Drosophila (WT: wcs)): increasingly avoided ingestion of H2O2-containing food | spiking response of bitter-sensing neurons ([1]; 100 mM H2O2, required the TrpA1 gene): robust spiking response | H2O2 current response (TRPA1(A)C105A): remarkably reduced responses to H2O2 | H2O2 current response (TRPA1(A)R113A/R116A): remarkably reduced responses to H2O2 | EC50 (mouse TRPA1): ~230 µM

CN1C(=O)C=CC1=O [NMM, N-methyl maleimide]
reversal potential of evoked current (Drosophila TRPA1(A); Xenopus oocytes, n = 7): −5.4 ± 1.0 mV | rectification: ratio of conductance at +60 mV to that at −60 mV (Drosophila TRPA1(A); net response, Xenopus oocytes, n = 4): 1.7 ± 0.3 | effect on the stimulatory effect of APS/TEMED co-incubation (agTRPA1(A); NMM at 0.01 mM): abolished | feeding avoidance (Drosophila (WT: wcs)): showed NMM-dependent feeding avoidance | effect of pre-application on UV-evoked action potentials [1]: lowered the frequencies of UV-evoked action potentials

c1c[nH]cn1 [imidazole]
isoform preference of activation (agTRPA1(A); Xenopus oocytes): preferentially activated agTRPA1(A) over agTRPA1(B)
